Here are results for two compounds from patent US10687532B2, “Substituted oxadiazoles for combating phytopathogenic fungi” (BASF SE, priority 2015, dated 2020).

As to `O=C(Nc1ccc(-c2noc(C(F)(F)F)n2)cc1)C1CCC1` [Ex-2, N-[4-[5-(trifluoromethyl)-1,2,4-oxadiazol-3-yl]phenyl]cyclobutanecarboxamide], the melting point was found to be 183 °C.

In turn, `CN(C(=O)C1CC1)c1ccc(-c2noc(C(F)(F)F)n2)cc1` [Ex-7, N-methyl-N-[4-[5-(trifluoromethyl)-1,2,4-oxadiazol-3-yl]phenyl]cyclopropanecarboxamide] returned a melting point of 98 °C.

As a reminder, the melting point is the temperature of the solid-liquid transition.
